In US20150105329A1, “Methods and Pharmaceutical Compositions for Prevention or Treatment of Ischemia Related Organ Damage” (INSERM (Institut National de la Sante et de la Recherche …, priority 2012, published 2015):

How the values were obtained:
[1] = test system: myocardial ischemia/reperfusion injury; test: Myocardial ischemia/reperfusion injury, infarct size; format: in vivo, C57/Bl6J mice; conditions: for decrease of infarct size vs saline: 30 min ischemia, 3 h reperfusion, p<0.05 vs saline
Experimental: Adult C57/Bl6J mice of 12-15 weeks old (20-30 g) were anesthetized with sodium pentobarbital (60 mg/kg, i.p.). The animals were intubated and ventilated with 100% oxygen (200 μl/breath at a rate of 170 breaths/min), using a Harvard rodent ventilator (Model 845, Harvard Apparatus, Les Ulis, France). Body temperature was monitored with a rectal probe connected to a digital thermometer, and maintained at 37° C. using a heating pad. A catheter was inserted into the jugular vein for bolus injection of drug (0.01 ml/10 g BW, 10-20 sec). The electrocardiogram (ECG) was recorded throughout the experiments on a Gould TA240 recorder (ECG biotech; Gould Instruments, Cleveland, Ohio, USA). A left thoracotomy was performed to expose the heart, and the pericardium was removed. The left anterior descending coronary artery was occluded with an 8.0 prolene suture, 2 mm from the tip of the left atrium for 30 min. Successful coronary occlusion was verified by the development of a pale color in the distal myocardium and by ST segment elevation and QRS widening on the ECG. After 30 min of sustained ischemia, coronary blood flow was restored by loosening the suture. Successful reperfusion was confirmed by visualization of hyperaemic response and restoration of normal ECG. The lungs were then reinflated by increasing positive end expiratory pressure, and the chest was closed. Reperfusion was maintained for a 3-h period. Drugs dissolved in isotonic saline were injected 5 minutes before reperfusion. B2 receptor agonist was administrated at different non hypotensive dosages as defined in preliminary experiments. To ensure the role of specific activation of B2 receptor, B2 agonist was tested with pretreatment by B2R antagonist (HOE140). After reperfusion, the chest was reopened, the coronary artery was reoccluded, and 0.5 ml of a 5% Evans blue solution was injected as a bolus into the jugular vein in order to delineate the area at risk (AR), which remained unstained by the Evans blue. The heart was excised, and the left ventricle (LV) was isolated, weighed, and sliced into 4 transverse pieces from base to apex, the first cutter blade being positioned at the site of the coronary occlusion. The slices were weighed, and color digital images of both sides of each slice were obtained with a Power Shot S50 zoom digital camera (Canon, Tokyo, Japan) connected to a microscope (Leica M Z 75; Leica Microsystems, Rueil-Malmaison, France), using the Adobe Photoshop software (Adobe Systems, San Jose, Calif., USA). The slices were then incubated at 37° C. with buffered 1% 2,3,5-triphenyltetrazolium chloride (TTC) solution for 20 min. Viable myocardium, which contained dehydrogenases, reacted with TTC and was stained brick red, whereas any necrotic tissue remained unstained due to the lack of active enzymes. The tissue sections were then fixed in a buffered 10% formalin solution for 24 h before being photographed again to delineate the IS. The cross-sectional area, the lumen area, the AR (unstained by Evans blue), and IS (unstained by TTC) of the LV were outlined on each color image and quantified by a masked observer using the Scion Image software (Scion Image for Windows; http://www.scioncorp.com). The absolute weights of AR and IS were then calculated for each slice. The sum of the absolute weight values of AR and IS of the 3 ischemic slices of each heart was calculated and expressed as a percentage of the total weight of the slice. The ratio of IS to AR was calculated from these absolute weight evaluations and expressed as a percentage of AR.

[2] = test system: hindlimb ischemia in streptozotocin-diabetic mice; test: Peripheral (hindlimb) ischemia in diabetic mice, neovascularization; format: in vivo, C57BL/6J mice
Experimental: Two-to three-month-old male C57BL/6J mice were used. Type 1 diabetes was induced by 5 daily ip injections of low-dose of streptozotocin (50 mg/kg dissolved in 0.05M sodium citrate buffer, pH 4.5). Ischemia of hinlimb was induced by permanent ligation of the right femoral artery once the diabetes is established (hyperglycemia >300 mg/dl, 4 weeks after streptozocin injections). Mice were anesthetized by isoflurane inhalation (0.8% in oxygen stream) and the proximal part of the femoral artery just below the origin of the circumflexa femoris lateralis was occluded with a silk suture. Concomitantly with the surgery, half the mice was treated with the B2 agonist (30 nmol/kg·h^−1), infused continuously through osmotic minipumps implanted subcutaneously. The other half of the mice was infused with the vehicle (isotonic saline). Healthy mice, non diabetic without ischemia were used as control.
Two weeks after the onset of ischemia, neovascularization was evaluated by two methods. —Arteries were quantified by high definition microangiography using barium sulfate and digital X-ray transducer. Mice were anesthetized (Pentobarbital injection, 60 mg/kg, I.P.) and longitudinal laparatomy was performed to introduce a polyethylene catheter into the abdominal aorta to inject contrast medium (Barium sulfate, 1 mg/ml). Images (two per animal) were acquired using a high-definition digital X-ray transducer. Vessel density was expressed as a percentage of pixels per image occupied by vessel density in the quantification area. —Capillary density was analyzed by immunohistochemistry using fibronectin-FITC antibody. Frozen tissue sections (7 μm) from calf muscle were incubated with rabbit polyclonal antibody directed against total fibronectin (dilution 1:50) to identify capillaries. The number of capillary by field was determined in both ischemic and nonischemic legs. Results are expressed as ischemic to nonischemic ratio.

hB2R [3] = target: T1, hB2R (Homo sapiens, UniProt P30411); conditions: naturally expressed and recombinant hB2R; cited from earlier work
T1 sequence (P30411 1-391): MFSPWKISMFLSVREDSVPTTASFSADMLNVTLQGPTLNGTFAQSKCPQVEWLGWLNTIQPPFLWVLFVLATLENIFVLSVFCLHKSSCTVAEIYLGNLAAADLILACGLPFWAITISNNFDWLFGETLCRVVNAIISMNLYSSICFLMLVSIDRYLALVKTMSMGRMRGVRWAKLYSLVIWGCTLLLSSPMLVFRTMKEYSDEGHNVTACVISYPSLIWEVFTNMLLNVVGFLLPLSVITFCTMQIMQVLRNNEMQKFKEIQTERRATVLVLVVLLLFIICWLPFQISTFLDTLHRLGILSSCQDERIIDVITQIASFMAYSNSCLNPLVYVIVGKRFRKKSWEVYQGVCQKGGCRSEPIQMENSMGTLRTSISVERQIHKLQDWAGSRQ

[4] = cited from earlier work
hB2R [5] = target: T1, hB2R; conditions: naturally expressed and recombinant hB2R; cited from earlier work; remark: listed apart in the source
[6] = 30 nmol/kg·h s.c. osmotic minipump, 14 days of ischemia

| Substance | effect on infarct size ([1]; antagonist given alone) | effect on cardioprotection by B2 agonist ([1]; pretreatment with B2R antagonist before B2 agonist) | angiographic score [2, 6] | capillary density [2, 6] | angiogenic effect ([2]; chronic administration 30 nmol/kg·h, FIG. 2) | in vitro affinities compared with bradykinin (hB2R [3]) | decrease of infarct size vs saline ([1]; 0.01 nmol/kg i.v. bolus 5 min before reperfusion) [%] | decrease of infarct size vs saline ([1]; 0.1 nmol/kg i.v. bolus 5 min before reperfusion) [%] | decrease of infarct size vs saline ([1]; 0.3 nmol/kg i.v. bolus 5 min before reperfusion) [%] | infarct size relative to area at risk ([1]; acute administration, FIG. 1) | potency and duration of action in vivo compared with bradykinin [4] | in vitro potencies compared with bradykinin (hB2R [5]) |
| --- | --- | --- | --- | --- | --- | --- | --- | --- | --- | --- | --- | --- |
| HOE140 | no effect on infarct size | suppressed the cardioprotective effect of B2 agonist | – | – | – | – | – | – | – | – | – | – |
| [Hyp(3), Thi(5), (N)Chg(7), Thi(8)]-BK [peptide 20] | – | – | increase | increase | proangiogenic effect | greater | −37.2 | −47.3 | −35.6 | Reducing effect | highly superior to bradykinin | greater |
